Results on four compounds are retold here after EP2669276A1 (Université de Strasbourg, priority 2012, dated 2013).

One experiment concerns the target T1, hNPFFR2 (Homo sapiens, UniProt Q9Y5X5).
T1 construct: The cDNA encoding the full-length human NPFFR1 and human NPFFR2; expressed in transfected cells
Description: cAMP measurement (forskolin-stimulated cAMP accumulation) in CHO cells expressing SF-hNPFFR2. The experiment is classed as cell-based. The note with it: antagonism of NPFF, Schild analysis; S.E.M. below 15%. How it is done: (§1) Functional coupling of SF-hNPFFR1 and SF-hNPFFR2 to adenylyl cyclase was assessed by measuring the inhibitory effects of agonist/antagonist and related compounds on forskolin-stimulated cAMP accumulation in CHO cells stably expressing both receptors as previously described (Gicquiaux et al., 2001) with minor modifications. Briefly, 80% confluent CHO cells expressing SF-hNPFFR1 or SF-hNPFFR2 were harvested and seeded in 96-well plates at an initial density of 10,000 cells per well. After 1-2 days of culture (90% confluency), cells were washed with 0.2 ml of PBS (in mM: 137 NaCl, 2.7 KCl, 0.9 CaCl2, 0.5 MgCl2, 6.5 Na2HPO4, 1.5 KH2PO4, pH 7.2), and then incubated at 37°C for 10 min with 0.2 ml assay buffer (in mM: 150 NaCl, 5 KCl, 2.5 CaCl2, 1.2 KH2PO4, 1.2 MgSO4, 25 NaHCO3, 10 HEPES, 10 mg/ml BSA, pH 7.4). After removal of buffer, 0.06 ml of fresh buffer containing 1 mM 3-isobutyl-1-methyl-xanthine (IBMX) was added for 10 min and cells were exposed to 10 µM forskolin without and with compounds (10^-10-10^-5 M) for 10 min at 37 °C in a final volume of 0.1 ml. The reaction was stopped by addition of 0.04 ml volume ice-cold 0.5 M HCl and cells were frozen (-80°C 1 hour) disrupted by sonication and suspensions were centrifuged at 2,000 × g for 15 min. The resulting supernatants were stored at -20°C until determination of cAMP by radioimmunoassay as described (Cailla et al., 1973). […]

The target in experiment [1] is T2, hNPFFR1 (Homo sapiens, UniProt Q9GZQ6).
T2 construct: The cDNA encoding the full-length human NPFFR1 and human NPFFR2; expressed in transfected cells
Nature of the experiment: cAMP measurement (forskolin-stimulated cAMP accumulation) in CHO cells expressing SF-hNPFFR1. The note with it: antagonism of NPVF, Schild analysis; S.E.M. below 15%. The experiment is classed as cell-based. How it is done:
as §1
On the technique in general: cAMP levels reflect the balance of adenylyl cyclase and phosphodiesterase activity.

In experiment [2] the test system is hyperalgesia induced by administration of opiate analgesics. The settings on record: rat, in vivo; cited from earlier work.
The target in experiment [3] is T2, hNPFFR1. Description: [35S]GTPγS binding measurement on SF-hNPFFR1 membranes. The class given is biochemical. The settings on record: tested alone, up to 50 µM. The method, then:
For [^35S]GTPγS binding experiments, SF-hNPFFR1 or SF-hNPFFR2 membrane proteins (5 µg) were incubated for 45 min at 30 °C in a final volume of 0.5 ml containing 20 mM HEPES pH 7.4, 100 mM NaCl, 3 mM MgCl2, 10 µM GDP, 10 µg/ml Saponin, 0.1 nM [^35S]GTPγS and ligands. Non-specific binding was determined in the presence of 10 µM GTPγS. Incubation mixtures were rapidly filtered and washed with 10 mM HEPES pH 7.4, 0,5 M NaCl, 1,5 mM MgCl2, on 96 wells GF/B unifilter (Perkin Elmer). Unifilter plates where then dryied for 1hr at 65°C. Bound radioactivity was determined by scintillation counting with 30 µl of scintillation cocktail (O-scint, Perkin Elmer) per well on a Topcount scintillation apparatus (Perkin Elmer).

Experiment [4] concerns Fentanyl-induced hyperalgesia followed by carrageenan injection in rats. Description: Fentanyl-induced hyperalgesia followed by carrageenan injection in rats. The settings on record: 0.5 mg/kg s.c. 30 min before fentanyl at D0, carrageenan at D13, P < 0.001 Newman-Keuls test. The class given is in vivo.
In experiment [5] the target is T2, hNPFFR1. Description: cAMP measurement (forskolin-stimulated cAMP accumulation) in CHO cells expressing SF-hNPFFR1. The class given is cell-based. The method, then:
as §1, with “After removal of buffer, 0.06 ml of fresh buffer containing 1 mM 3-isobutyl-1-methyl-xanthine (IBMX) was added for 10 min and cells were exposed to 10 µM forskolin without and with compounds (10^-10-10^-5 M) for 10 min at 37 °C in a final volume of 0.1 ml.” left out, “1973). For antagonist evaluation, dose response curves of agonists (NPVF and NPFF for hNPFFR1 and hNPFFR2, respectively) were performed in the presence of fixed concentrations of antagonist.” for “1973).”

The next experiment has as its target T3, hNPFF1 (Homo sapiens, UniProt Q9GZQ6).
T3 construct: The cDNA encoding the full-length human NPFFR1 and human NPFFR2; expressed in transfected cells
Nature of the experiment: Receptor binding assay with [3H]-FFRFamide on CHO cell membranes expressing SF-hNPFFR1. The note with it: for Ki: read-out: Ki NPFF1. The source says: (§2) The cDNA encoding the full-length human NPFFR1 and human NPFFR2 were subcloned into the pcDNA3 expression vector (Invitrogen, Cergy Pontoise, France) using standard molecular biology methods. A sequence encoding a signal sequence and a Flag epitope was fused to the 5' coding sequence of both hNPFFR1 and hNPFFR2 cDNA according to (Guan et al., 1992) resulting in a SF-hNPFFR1 and SF-hNPFFR2 constructs. These contructs were stably transfected into CHO cells.
(§3) Membranes from CHO cells stably expressing SF-hNPFFR1 or SF-hNPFFR2 were prepared as described (Becker et al., 1999). SF-hNPFFR1 or SF-hNPFFR2 membranes (10µg) were incubated for 30 min at 25 °C in a final volume of 0.5 ml containing 50 mM HEPES pH 7.4, 1 mM CaCl2, 1 mM MgCl2, 0.1% bovine serum albumin, 10 nM and 3 nM [^3H]-FFRFamide (CEA, Paris; specific activity, 13,6 Ci/mmol) for […], respectively and the ligands to be tested. Non-specific binding was determined in presence of 1 µM neuropeptide FF for SF-hNPFFR2 and 1 µM neuropeptide VF for SF -hNPFFR1. Typical total and nonspecific binding were 1200 and 200 dpm, respectively for SF-hNPFFR1 and SF-hNPFFR2. Incubation mixtures were rapidly filtered and washed with 50 mM HEPES pH 7.4, 1 mM CaCl2, 1 mM MgCl2, on 96 wells GF/B unifilter (Perkin Elmer). Unifilter plates where then dryied for 1hr at 65°C. Bound radioactivity was determined by scintillation counting with 30 µl of scintillation cocktail (O-scint, Perkin Elmer) per well on a Topcount scintillation apparatus (Perkin Elmer).

Another experiment concerns the target T4, hNPFF2 (Homo sapiens, UniProt Q9Y5X5).
T4 construct: The cDNA encoding the full-length human NPFFR1 and human NPFFR2; expressed in transfected cells
Description: Receptor binding assay with [3H]-FFRFamide on CHO cell membranes expressing SF-hNPFFR2. The settings on record: for Ki: read-out: Ki NPFF2.
From the text: as §2, §3

For experiment [6], the system named is Fentanyl-induced hyperalgesia in rats. Nature of the experiment: Fentanyl-induced hyperalgesia in rats (paw pressure vocalization test). The experiment is classed as in vivo. The note with it: for fentanyl-induced hyperalgesia / development of fentanyl-induced hyperalgesia: rats, 30 min before fentanyl; for fentanyl-induced hyperalgesia: P < 0.001, Newman-Keuls test.

The mark [7] stands for this setting: [3H]-FFRF-NH2 radioligand, mean of at least two experiments.
[8] abbreviates: 0.5 µM, [3H]-FFRF-NH2 radioligand, mean of at least two experiments.
Setting [9] is: 5 µM, [3H]-FFRF-NH2 radioligand, mean of at least two experiments.

Values joined by “and” are separate entries in the source; they are usually repeats but may differ in a detail not shown here. Equal entries are not always repeated. Where two headings read alike, the source gives them in different places.

T3 sequence (Q9GZQ6 whole entry): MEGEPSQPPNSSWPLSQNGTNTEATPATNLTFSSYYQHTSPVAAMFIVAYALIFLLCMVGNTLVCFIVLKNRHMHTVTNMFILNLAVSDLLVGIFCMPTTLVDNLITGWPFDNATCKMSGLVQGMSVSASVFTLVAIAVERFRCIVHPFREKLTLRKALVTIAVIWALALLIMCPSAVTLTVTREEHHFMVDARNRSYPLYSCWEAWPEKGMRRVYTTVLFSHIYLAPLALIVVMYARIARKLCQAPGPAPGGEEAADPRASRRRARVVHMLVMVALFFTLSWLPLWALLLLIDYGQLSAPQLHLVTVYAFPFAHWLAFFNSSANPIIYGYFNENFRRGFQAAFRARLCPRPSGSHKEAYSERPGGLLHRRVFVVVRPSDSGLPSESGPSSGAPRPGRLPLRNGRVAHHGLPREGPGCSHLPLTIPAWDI
T2 sequence (Q9GZQ6 whole entry): as above
T4 sequence (Q9Y5X5 whole entry): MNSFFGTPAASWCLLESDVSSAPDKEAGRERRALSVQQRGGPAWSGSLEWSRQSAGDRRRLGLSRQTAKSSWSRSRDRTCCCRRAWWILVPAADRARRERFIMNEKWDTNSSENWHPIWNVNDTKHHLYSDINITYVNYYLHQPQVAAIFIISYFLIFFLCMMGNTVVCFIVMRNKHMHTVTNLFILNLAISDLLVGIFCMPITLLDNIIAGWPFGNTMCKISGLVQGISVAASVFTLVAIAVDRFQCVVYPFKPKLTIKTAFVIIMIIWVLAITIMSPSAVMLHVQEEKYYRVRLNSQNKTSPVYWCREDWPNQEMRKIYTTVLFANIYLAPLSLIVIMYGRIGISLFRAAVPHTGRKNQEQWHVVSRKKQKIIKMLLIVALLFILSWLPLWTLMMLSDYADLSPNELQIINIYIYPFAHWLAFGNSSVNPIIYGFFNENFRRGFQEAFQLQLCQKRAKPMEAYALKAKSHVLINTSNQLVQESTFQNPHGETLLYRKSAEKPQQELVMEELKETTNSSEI
T1 sequence (Q9Y5X5 whole entry): as above

In the case of “N^α-adamantan-1-yl-L-Arg-L-Phe-NH2 acetate [RF9]”, the “pA2 for hNPFFR2” value at hNPFFR2 is listed as 6,65. Besides, the “pA2 value for hNPFFR1” value on hNPFFR1 [1] was 6.47. The “activity on hyperalgesia induced by repeated administration of opiate analgesics” value in experiment [2] is recorded as “antihyperalgesic activity”.

Broadly, the Ki is the dissociation constant of the complex between target and ligand, obtained from inhibition or displacement. Consider `O=C(N[C@@H](CCCN1CCCCC1)C(=O)NCCc1ccccc1)c1ccccc1-c1ccccc1` [Compound 26, (2S)-N-(2-phenylethyl)-2-[(2-phenylphenyl)formamido]-5-(piperidin-1-yl)pentanamide], for which the “stimulation of the binding of [35S]GTPgS” value at hNPFFR1 [3] is on record as “did not stimulate”. For the same compound, the “increase in inflammatory hyperalgesia induced by prior fentanyl injection” value in experiment [4] is “completely prevented”. Further, the Kb on hNPFFR1 [5] (read-out: pA2 value for hNPFFR1 (converted)) is 977 nM. Further, the “decrease of forskolin-stimulated cAMP accumulation” value on hNPFFR1 [5] (tested alone, up to 50 µM) is recorded as “did not decrease”. For the same compound, the Ki is 60 nM and 65 nM on hNPFF1 (setting [7]); over 13 µM at hNPFF2 ([3H]-FFRF-NH2 radioligand, unit µM printed with the value). Also, the “affinity for NPFFR1” value on hNPFF1 (in words) is “good affinity”. At hNPFF2 (in words), the “affinity for NPFFR2” value is given as “very low affinity”. For the same compound, the “in vivo activity after oral administration” value in experiment [6] (oral, low dose of 1 mg/kg) is reported as “highly satisfactory in vivo activity”. The “hyperalgesia induced by administration of fentanyl” value in experiment [6] (rat, single 0.5 mg/kg dose, i.p.) is reported as “blocks”. For the same compound, the fentanyl-induced hyperalgesia entry in [6] (0.5 mg/kg subcutaneously) and in [6] (3 mg/kg orally) was “completely abolished” in each case. Besides, the “development of fentanyl-induced hyperalgesia” value is “dose-dependently prevented” in [6] (orally 0.3, 1 and 3 mg/kg); “dose-dependently prevented” in experiment [6] (subcutaneously 0.05, 0.1 and 0.5 mg/kg).

In the case of `O=C(N[C@@H](CCCCNCc1ccccc1)C(=O)NCCc1ccccc1)c1ccccc1-c1ccccc1` [Compound 6, (2S)-6-(benzylamino)-N-(2-phenylethyl)-2-[(2-phenylphenyl)formamido]hexanamide], the figures for the inhibitory constant (Ki) at hNPFF1 (setting [7]) and at hNPFF2 (setting [7]) were 210 ± 39 nM and 0.72 ± 0.059 µM, respectively.

As a reminder, the inhibition is how much of the control response was suppressed. A lower inhibition goes with a response near the control. Consider `CN(CCC[C@H](NC(=O)c1ccccc1-c1ccccc1)C(=O)NCCc1ccccc1)Cc1ccccc1Cl` [Compound 19, (2S)-5-{[(2-chlorophenyl)methyl](methyl)amino}-N-(2-phenylethyl)-2-[(2-phenylphenyl)formamido]pentanamide], for which the inhibition at 0.5 µM is 16 ± 5% at hNPFF1 (setting [8]) and 0% at hNPFF2 (setting [8]). The inhibition at 5 µM at hNPFF1 (setting [9]) came out at 60 ± 2%; on hNPFF2 (setting [9]), 39 ± 7%.
